The source of these data is patent US20250034122A1, “SUBSTITUTED N-CYANOPYRROLIDINES WITH ACTIVITY AS USP30 INHIBITORS” (MISSION THERAPEUTICS LIMITED, priority 2021, published 2025).

Each structure is given as a SMILES string.

One assay concerns the target USP30 (Homo sapiens (Human), UniProt Q70CQ3). Put plainly: USP30 biochemical IC50 assay (fluorescence polarisation). Conditions: geomean; USP30 4 nM, 30 min pre-incubation, TAMRA-peptide-ubiquitin FP substrate. In general terms: In fluorescence polarisation assays a small probe gives low polarisation when free and higher when bound to something large.
In a further assay the test system is TOM20 ubiquitylation. Put plainly: TOM20-ubiquitylation assay (western blot of cell lysates). Type of assay: cell-based, Human. Conditions: antimycin A/oligomycin mitophagy trigger, concentration for 1.5-fold gain of TOM20-Ub. An excerpt: TOM20-Ubiquitylation Assay Human cell lines can be challenged with mitochondrial depolarizing agents (ionophores (eg. CCCP, valinomycin), mitochondrial complex inhibitors (oligomycin, antimycin A)) to induce ubiquitylation of TOM20, which is then further promoted in the presence of USP30 inhibitors. TOM20 ubiquitylation is subsequently assessed through western blotting of the cell lysates, with TOM20 ubiquitylation adduct detection possible due to an 8 kDa molecule weight increase for each molecule of ubiquitin added, resulting in laddering of a TOM20 immunoreactive band. TOM20-ubiquitylation levels can be quantified using chemiluminescence densitometry of laddered immunoreactive bands.
On the technique in general: In western blotting, separated proteins are transferred to a membrane and probed.

Sequence of USP30 (Q70CQ3 57-517): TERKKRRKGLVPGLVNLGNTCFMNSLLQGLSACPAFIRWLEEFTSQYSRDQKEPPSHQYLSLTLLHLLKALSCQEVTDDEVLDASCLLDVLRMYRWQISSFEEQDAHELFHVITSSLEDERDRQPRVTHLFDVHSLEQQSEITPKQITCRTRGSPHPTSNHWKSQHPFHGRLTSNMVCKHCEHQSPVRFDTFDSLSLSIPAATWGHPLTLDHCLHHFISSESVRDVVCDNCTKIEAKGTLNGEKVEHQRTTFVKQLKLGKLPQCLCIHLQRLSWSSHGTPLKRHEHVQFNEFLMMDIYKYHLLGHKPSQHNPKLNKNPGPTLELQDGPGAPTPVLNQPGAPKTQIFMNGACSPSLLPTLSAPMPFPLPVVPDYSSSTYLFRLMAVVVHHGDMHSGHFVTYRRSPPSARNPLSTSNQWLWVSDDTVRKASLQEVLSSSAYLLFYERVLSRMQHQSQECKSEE
Protocol for USP30: Dilution plates were prepared at 21 times the final concentration (2100 μM for a final concentration of 100 μM) in 50% DMSO in a 96-well polypropylene V-bottom plate (Greiner #651201). A typical 8-point dilution series would be 100, 30, 10, 3, 1, 0.3, 0.1, 0.03 μM final. Reactions were performed in duplicate in black 384 well plates (small volume, Greiner 784076) in a final reaction volume of 21 μl.
Either lpl of 50% DMSO or diluted compound was added to the plate. USP30 (Boston Biochem #E582) was diluted in reaction buffer (40 mM Tris, pH 7.5, 0.005% Tween 20, 0.5 mg/ml BSA, 5 mM beta-mercaptoethanol) to achieve a final assay concentration of 4 nM, and 10 μl of diluted USP30 was added to the compound. Enzyme and compound were incubated for 30 min at room temp. Reactions were initiated by the addition of 50 nM of TAMRA labelled peptide linked to ubiquitin via an isopeptide bond as fluorescence polarisation substrate. Reactions were read immediately after addition of substrate and following a 2-hour incubation at room temperature. Readings were performed on a Pherastar Plus (BMG Labtech). λ Excitation 540 nm; λ Emission 590 nm.

In turn, `N#Cc1ccc(C2CC2)c(-c2cnc(C(=O)N(C3CC3)[C@@H]3C[C@@H](Cn4ccnn4)N(C#N)C3)o2)c1` [Example 1, N-((3R,5S)-5-((1H-1,2,3-Triazol-1-yl)methyl)-1-cyanopyrrolidin-3-yl)-5-(5-cyano-2-cyclopropylphenyl)-N-cyclopropyloxazole-2-carboxamide] returned an IC50 on USP30 of 5 nM. In the assay with TOM20 ubiquitylation, the “EC1.5x (Geomean, nM); TOM20-Ub 1.5-fold gain” value was found to be 17 nM.

As for `N#Cc1ccc(C2CC2)c(-c2nnc(C(=O)N(C3CC3)[C@@H]3C[C@@H](Cn4ccnn4)N(C#N)C3)o2)c1` [Example 2, N-((3R,5S)-5-((1H-1,2,3-Triazol-1-yl)methyl)-1-cyanopyrrolidin-3-yl)-5-(5-cyano-2-cyclopropylphenyl)-N-cyclopropyl-1,3,4-oxadiazole-2-carboxamide], half-maximal inhibition at USP30 (IC50) was put at 11 nM. In addition, the “EC1.5x (Geomean, nM); TOM20-Ub 1.5-fold gain” value with TOM20 ubiquitylation is on record as 15 nM.

As to `N#Cc1cccc(-c2cnc(C(=O)N[C@@H]3C[C@@H](Cn4ccnn4)N(C#N)C3)o2)c1` [Example 3, N-((3R,5S)-5-((1H-1,2,3-Triazol-1-yl)methyl)-1-cyanopyrrolidin-3-yl)-5-(3-cyanophenyl)oxazole-2-carboxamide], the IC50 against USP30 stood at 2 nM. The “EC1.5x (Geomean, nM); TOM20-Ub 1.5-fold gain” value in the assay on TOM20 ubiquitylation came out at 8 nM.

In turn, `N#CN1C[C@H](NC(=O)c2ncc(-c3cccc(Cl)c3)o2)C[C@H]1Cn1ccnn1` [Example 5, N-((3R,5S)-5-((1H-1,2,3-Triazol-1-yl)methyl)-1-cyanopyrrolidin-3-yl)-5-(3-chlorophenyl)oxazole-2-carboxamide] displayed an IC50 at USP30 of 4 nM. For the same molecule, the “EC1.5x (Geomean, nM); TOM20-Ub 1.5-fold gain” value with TOM20 ubiquitylation is 9 nM.

On USP30, `COc1ccccc1-c1cnc(C(=O)N[C@@H]2C[C@@H](Cn3ccnn3)N(C#N)C2)o1` [Example 6, N-((3R,5S)-5-((1H-1,2,3-Triazol-1-yl)methyl)-1-cyanopyrrolidin-3-yl)-5-(2-methoxyphenyl)oxazole-2-carboxamide] returned a half-inhibitory concentration (IC50) of 23 nM. Further, in the assay with TOM20 ubiquitylation, the “EC1.5x (Geomean, nM); TOM20-Ub 1.5-fold gain” value came out at 180 nM.

Regarding `N#CN1C[C@H](NC(=O)c2ncc(-c3ccccc3C3CC3)o2)C[C@H]1Cn1ccnn1` [Example 8, N-((3R,5S)-5-((1H-1,2,3-Triazol-1-yl)methyl)-1-cyanopyrrolidin-3-yl)-5-(2-cyclopropylphenyl)oxazole-2-carboxamide], the IC50 on USP30 was 14 nM. Moreover, in the assay with TOM20 ubiquitylation, the “EC1.5x (Geomean, nM); TOM20-Ub 1.5-fold gain” value amounted to 41 nM.

`N#CN1C[C@H](NC(=O)c2ncc(-c3cccc(C4CC4)c3)o2)C[C@H]1Cn1ccnn1` [Example 12, N-((3R,5S)-5-((1H-1,2,3-Triazol-1-yl)methyl)-1-cyanopyrrolidin-3-yl)-5-(3-cyclopropylphenyl)oxazole2-carboxamide]: the concentration for half-maximal inhibition (IC50) at USP30 came to 8 nM. Moreover, the “EC1.5x (Geomean, nM); TOM20-Ub 1.5-fold gain” value with TOM20 ubiquitylation came out at 25 nM.

`N#CN1C[C@H](NC(=O)c2nnc(-c3cc(OC(F)(F)F)ccc3C3CC3)o2)C[C@H]1Cn1ccnn1` [Example 13, N-((3R,5S)-5-((1H-1,2,3-Triazol-1-yl)methyl)-1-cyanopyrrolidin-3-yl)-5-(2-cyclopropyl-5-(trifluoromethoxy)phenyl)-1,3,4-oxadiazole-2-carboxamide] came in with an IC50 at USP30 of 5 nM. In addition, the “EC1.5x (Geomean, nM); TOM20-Ub 1.5-fold gain” value in the assay on TOM20 ubiquitylation amounted to 6 nM.

At USP30, `N#Cc1ccc(OC2COC2)c(-c2cnc(C(=O)N(C3CC3)[C@@H]3C[C@@H](Cn4ccnn4)N(C#N)C3)o2)c1` [Example 16, N-((3R,5S)-5-((1H-1,2,3-Triazol-1-yl)methyl)-1-cyanopyrrolidin-3-yl)-5-(5-cyano-2-(oxetan-3-yloxy)phenyl)-N-cyclopropyloxazole-2-carboxamide] showed an IC50 of 28 nM. For the same molecule, the “EC1.5x (Geomean, nM); TOM20-Ub 1.5-fold gain” value with TOM20 ubiquitylation is on record as 950 nM.

As for `N#Cc1cccc(-c2cnc(C(=O)N[C@@H]3C[C@@H](Cn4nccn4)N(C#N)C3)o2)c1` [Example 17, N-((3R,5S)-5-((2H-1,2,3-Triazol-2-yl)methyl)-1-cyanopyrrolidin-3-yl)-5-(3-cyanophenyl)oxazole-2-carboxamide], at USP30, the IC50 worked out at 4 nM. The “EC1.5x (Geomean, nM); TOM20-Ub 1.5-fold gain” value in the assay with TOM20 ubiquitylation is listed as 16 nM.

In the case of `N#Cc1cccc(-c2cnc(C(=O)N[C@@H]3C[C@@H](Cn4cncn4)N(C#N)C3)o2)c1` [Example 18, N-((3R,5S)-5-((1H-1,2,4-Triazol-1-yl)methyl)-1-cyanopyrrolidin-3-yl)-5-(3-cyanophenyl)oxazole-2-carboxamide], the IC50 against USP30 is 2 nM. For the same molecule, in the assay on TOM20 ubiquitylation, the “EC1.5x (Geomean, nM); TOM20-Ub 1.5-fold gain” value is recorded as 16 nM.

At USP30, `N#CN1C[C@H](NC(=O)c2cc(-c3cccc(C(F)(F)F)c3)ccn2)C[C@H]1Cn1ccnn1` [Example 24, N-((3R,5S)-5-((1H-1,2,3-Triazol-1-yl)methyl)-1-cyanopyrrolidin-3-yl)-4-(3-(trifluoromethyl)phenyl)picolinamide] came in with an IC50 of 9 nM. The “EC1.5x (Geomean, nM); TOM20-Ub 1.5-fold gain” value in the assay with TOM20 ubiquitylation is 620 nM.

The molecule `N#Cc1cccc(-c2cnc(C(=O)N[C@@H]3C[C@@H](Cn4cccn4)N(C#N)C3)o2)c1` [Example 26, N-((3R,5S)-5-((1H-Pyrazol-1-yl)methyl)-1-cyanopyrrolidin-3-yl)-5-(3-cyanophenyl)oxazole-2-carboxamide] displayed an IC50 against USP30 of 5 nM. In addition, in the assay with TOM20 ubiquitylation, the “EC1.5x (Geomean, nM); TOM20-Ub 1.5-fold gain” value is listed as 14 nM.

For `N#CN1C[C@H](NC(=O)c2ncc(-c3cccc(C(F)(F)F)c3)o2)C[C@H]1Cn1cccn1` [Example 30, N-((3R,5S)-5-((1H-Pyrazol-1-yl)methyl)-1-cyanopyrrolidin-3-yl)(3(trifluoromethyl)phenyl)oxazole-2-carboxamide], at USP30, the IC50 is 11 nM. Moreover, the “EC1.5x (Geomean, nM); TOM20-Ub 1.5-fold gain” value with TOM20 ubiquitylation was determined as 14 nM.

The molecule `N#Cc1ccc(C2CC2)c(-c2nnc(C(=O)N[C@@H]3C[C@@H](Cn4cccn4)N(C#N)C3)o2)c1` [Example 46, N-((3R,5S)-5-((1H-Pyrazol-1-yl)methyl)-1-cyanopyrrolidin-3-yl)-5-(5-cyano-2-cyclopropylphenyl)-1,3,4-oxadiazole-2-carboxamide] came in with a half-maximal inhibitory concentration (IC50) against USP30 of 9 nM. Also, the “EC1.5x (Geomean, nM); TOM20-Ub 1.5-fold gain” value in the assay on TOM20 ubiquitylation came out at 19 nM.

By IC50 is commonly meant the concentration needed to halve the response being measured.
